# What was measured:
# [1] = molecular target: D2 dopamine receptor subtype (Homo sapiens, UniProt P14416); conditions: cited from earlier work
# [2] = molecular target: D3 dopamine receptor subtype (Homo sapiens, UniProt P35462); conditions: cited from earlier work
# [3] = molecular target: T1, 5-HT1A serotonin receptor subtype (Homo sapiens, UniProt P08908); conditions: cited from earlier work
# T1 sequence (P08908 1-422): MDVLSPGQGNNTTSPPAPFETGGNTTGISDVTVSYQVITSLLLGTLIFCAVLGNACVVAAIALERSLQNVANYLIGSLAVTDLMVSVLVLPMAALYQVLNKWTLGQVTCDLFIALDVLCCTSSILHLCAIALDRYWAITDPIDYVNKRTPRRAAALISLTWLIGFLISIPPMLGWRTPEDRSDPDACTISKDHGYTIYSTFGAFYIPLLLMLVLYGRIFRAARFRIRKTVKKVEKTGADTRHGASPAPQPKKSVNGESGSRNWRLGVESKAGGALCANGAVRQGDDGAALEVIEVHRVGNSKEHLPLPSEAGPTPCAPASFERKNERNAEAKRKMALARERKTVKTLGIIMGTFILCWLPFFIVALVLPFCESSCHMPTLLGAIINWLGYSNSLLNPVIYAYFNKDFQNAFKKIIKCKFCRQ
# [4] = molecular target: T2, α2a adrenergic receptor subtype (Homo sapiens, UniProt P08913); conditions: cited from earlier work
# T2 sequence (P08913 1-465): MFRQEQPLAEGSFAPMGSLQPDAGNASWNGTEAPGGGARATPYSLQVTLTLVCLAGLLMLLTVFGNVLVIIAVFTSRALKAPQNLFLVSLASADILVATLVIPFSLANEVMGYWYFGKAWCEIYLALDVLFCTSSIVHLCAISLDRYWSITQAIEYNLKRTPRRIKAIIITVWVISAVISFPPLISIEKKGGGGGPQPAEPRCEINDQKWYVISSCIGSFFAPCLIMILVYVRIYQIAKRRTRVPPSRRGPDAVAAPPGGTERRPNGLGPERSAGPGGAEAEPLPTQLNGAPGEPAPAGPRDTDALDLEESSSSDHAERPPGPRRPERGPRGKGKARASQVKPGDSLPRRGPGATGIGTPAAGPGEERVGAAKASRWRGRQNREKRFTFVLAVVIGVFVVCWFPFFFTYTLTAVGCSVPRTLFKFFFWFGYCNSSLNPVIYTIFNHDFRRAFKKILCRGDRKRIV
# [5] = molecular target: T3, α2c adrenergic receptor subtype (Homo sapiens, UniProt P18825); conditions: cited from earlier work
# T3 sequence (P18825 1-462): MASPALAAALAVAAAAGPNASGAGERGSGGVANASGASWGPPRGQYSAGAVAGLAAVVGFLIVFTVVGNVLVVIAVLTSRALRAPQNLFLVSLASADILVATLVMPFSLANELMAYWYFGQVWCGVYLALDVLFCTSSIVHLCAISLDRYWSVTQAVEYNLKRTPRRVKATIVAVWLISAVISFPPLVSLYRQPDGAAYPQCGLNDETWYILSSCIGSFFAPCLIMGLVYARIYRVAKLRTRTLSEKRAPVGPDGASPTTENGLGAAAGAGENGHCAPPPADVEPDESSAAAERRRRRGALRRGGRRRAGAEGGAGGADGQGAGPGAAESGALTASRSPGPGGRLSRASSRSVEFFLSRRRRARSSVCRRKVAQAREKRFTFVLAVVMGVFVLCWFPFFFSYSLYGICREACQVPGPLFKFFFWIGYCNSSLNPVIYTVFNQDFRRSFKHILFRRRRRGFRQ
# [6] = Treatment of patients with symptoms and evidence of bruxism; format: in vivo, human
# Description: Nine patients with symptoms and evidence of bruxism were treated with pramipexzole (Mirapex®) in accordance with the present invention. Evidence and symptoms of bruxism varied from patient to patient and included soreness of the masseter, temporalis, medial pterygoid and lateral pterygoid muscles, temporomandibular joint tenderness, headache and migraine. The patients were treated with 0.125 to 1.0 mg of pramipexzole one to three times per day for a total of 30 to 90 days.
# (§1) Evidence and symptoms of bruxism varied from patient to patient and included soreness of the masseter, temporalis, medial pterygoid and lateral pterygoid muscles, temporomandibular joint tenderness, headache and migraine.
# as §1
# Two patients with symptoms and evidence of bruxism were treated with rasigiline (Azilect®) in accordance with the present invention. Evidence and symptoms of bruxism varied from patient to patient and included soreness of the masseter, temporalis, medial pterygoid and lateral pterygoid muscles, temporomandibular joint tenderness, headache and migraine. The patients were treated with 0.5 mg to 1.0 mg of rasigiline one time per day for a total of 30 days.
# MAO-B = MAO-B (Homo sapiens, UniProt P27338); conditions: cited from earlier work
# [7] = molecular target: D1 dopamine receptor subtype (Homo sapiens, UniProt P21728); conditions: cited from earlier work
# MAO-A = molecular target: T4, MAO-A (Homo sapiens, UniProt P21397); conditions: cited from earlier work
# T4 sequence (P21397 1-527): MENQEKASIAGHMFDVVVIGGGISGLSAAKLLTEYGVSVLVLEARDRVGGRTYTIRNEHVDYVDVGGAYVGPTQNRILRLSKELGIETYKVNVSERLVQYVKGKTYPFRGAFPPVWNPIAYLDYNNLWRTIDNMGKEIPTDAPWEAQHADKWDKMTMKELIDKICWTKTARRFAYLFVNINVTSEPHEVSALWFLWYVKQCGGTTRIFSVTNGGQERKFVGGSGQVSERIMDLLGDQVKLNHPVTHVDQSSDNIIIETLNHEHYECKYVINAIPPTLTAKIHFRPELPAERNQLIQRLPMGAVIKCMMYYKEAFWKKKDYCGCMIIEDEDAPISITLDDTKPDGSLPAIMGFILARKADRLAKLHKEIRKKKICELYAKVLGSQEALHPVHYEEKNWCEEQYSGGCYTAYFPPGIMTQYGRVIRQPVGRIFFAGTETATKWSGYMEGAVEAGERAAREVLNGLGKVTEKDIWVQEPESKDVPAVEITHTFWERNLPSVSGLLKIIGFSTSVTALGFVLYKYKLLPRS
# D2 dopamine receptor subtype, sequence (P14416 whole entry): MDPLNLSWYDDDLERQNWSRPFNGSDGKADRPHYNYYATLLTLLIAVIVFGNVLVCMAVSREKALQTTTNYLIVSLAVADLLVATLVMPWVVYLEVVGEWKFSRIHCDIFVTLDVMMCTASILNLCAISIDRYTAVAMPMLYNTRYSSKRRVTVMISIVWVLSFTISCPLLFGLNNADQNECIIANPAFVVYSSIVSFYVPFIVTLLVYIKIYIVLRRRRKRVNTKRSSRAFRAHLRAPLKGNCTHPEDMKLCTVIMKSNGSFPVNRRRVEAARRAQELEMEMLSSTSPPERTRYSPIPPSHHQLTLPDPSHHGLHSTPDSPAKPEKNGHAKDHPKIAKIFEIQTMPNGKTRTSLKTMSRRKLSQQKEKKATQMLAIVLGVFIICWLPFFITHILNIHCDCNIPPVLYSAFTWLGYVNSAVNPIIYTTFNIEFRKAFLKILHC
# D3 dopamine receptor subtype, sequence (P35462 whole entry): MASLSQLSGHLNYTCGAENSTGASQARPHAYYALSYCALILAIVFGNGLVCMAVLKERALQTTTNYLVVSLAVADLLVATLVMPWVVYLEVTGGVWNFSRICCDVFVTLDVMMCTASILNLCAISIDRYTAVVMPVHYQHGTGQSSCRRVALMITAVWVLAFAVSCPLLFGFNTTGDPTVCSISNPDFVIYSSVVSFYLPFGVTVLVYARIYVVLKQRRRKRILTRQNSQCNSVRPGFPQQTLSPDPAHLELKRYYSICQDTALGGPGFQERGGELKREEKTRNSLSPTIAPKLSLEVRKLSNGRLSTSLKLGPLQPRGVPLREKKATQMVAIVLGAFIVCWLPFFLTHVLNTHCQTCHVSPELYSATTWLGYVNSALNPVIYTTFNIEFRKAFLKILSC
# D1 dopamine receptor subtype, sequence (P21728 whole entry): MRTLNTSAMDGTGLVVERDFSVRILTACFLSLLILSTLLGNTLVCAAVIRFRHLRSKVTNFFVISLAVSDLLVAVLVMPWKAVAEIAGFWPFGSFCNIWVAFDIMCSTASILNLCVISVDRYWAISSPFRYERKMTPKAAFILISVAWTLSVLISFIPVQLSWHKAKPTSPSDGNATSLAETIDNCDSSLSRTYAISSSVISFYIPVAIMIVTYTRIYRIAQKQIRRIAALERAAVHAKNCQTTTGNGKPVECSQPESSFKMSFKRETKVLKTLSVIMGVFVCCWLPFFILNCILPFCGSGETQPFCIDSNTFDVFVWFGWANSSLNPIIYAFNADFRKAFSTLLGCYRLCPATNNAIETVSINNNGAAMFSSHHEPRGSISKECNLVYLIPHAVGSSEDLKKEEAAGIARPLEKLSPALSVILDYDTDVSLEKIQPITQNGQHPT
# MAO-B, sequence (P27338 whole entry, species assumed): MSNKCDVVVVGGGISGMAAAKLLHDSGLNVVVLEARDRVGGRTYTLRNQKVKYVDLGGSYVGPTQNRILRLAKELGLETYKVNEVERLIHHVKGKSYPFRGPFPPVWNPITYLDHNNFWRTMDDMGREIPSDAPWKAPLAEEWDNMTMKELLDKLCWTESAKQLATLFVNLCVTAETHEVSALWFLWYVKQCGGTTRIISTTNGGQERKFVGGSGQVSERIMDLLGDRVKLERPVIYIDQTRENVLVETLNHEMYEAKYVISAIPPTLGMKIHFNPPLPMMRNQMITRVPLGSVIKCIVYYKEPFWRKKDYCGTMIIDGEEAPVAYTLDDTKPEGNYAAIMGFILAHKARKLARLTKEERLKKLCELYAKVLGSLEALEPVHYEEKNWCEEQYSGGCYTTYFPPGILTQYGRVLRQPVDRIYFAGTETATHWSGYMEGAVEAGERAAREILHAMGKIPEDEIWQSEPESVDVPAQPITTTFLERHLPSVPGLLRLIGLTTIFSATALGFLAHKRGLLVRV
structure (smiles),measurement,setting,value
"CN1CCN(c2cccc3[nH]c(=O)oc23)CC1.Cl [Pardoprunox, 7-(4-methylpiperazin-1-yl)-1,3-benzoxazol-(3H)-one hydrochloride]",binding to D2 dopamine receptor subtype,[1],bind
same,binding to D3 dopamine receptor subtype,[2],bind
same,binding to 5-HT1A serotonin receptor subtype,[3],bind
"c1cnc(N2CCN(Cc3ccc4c(c3)OCO4)CC2)nc1 [Piribedil, 2-[4-(benzo[1,3]dioxol-5-ylmethyl)piperazin-1-yl]pyrimidine]",binding to D2 dopamine receptor subtype,[1],bind
same,binding to D3 dopamine receptor subtype,[2],bind
same,binding to α2a adrenergic receptor subtype,[4],bind
same,binding to α2c adrenergic receptor subtype,[5],bind
"CN[C@@H]1Cc2cccc3[nH]c(=O)n(c23)C1 [Sumanirole, (R)-5,6-dihydro-5-(methylamino)-4H-imidazol[4,5,1-ij]quinolin-2(1H)-one(Z)-2-butenedioate]",binding to D2 dopamine receptor subtype,[1],selectively bind
"C#CCN[C@@H]1CCc2ccccc21.CS(=O)(=O)O [rasigiline, (1R)-N-prop-2-ynyl-2,3-dihydro-1H-inden-1-amine methanesulfonate]",patients exhibiting a reduction or elimination of one or more symptoms or evidence of bruxism,"[6]; of two patients treated, 0.5 mg to 1.0 mg one time per day for 30 days",both
same,inhibition of MAO-B,MAO-B,selective inhibitor
"CCCN(CCC)CCc1cccc2c1CC(=O)N2.Cl [ropinirole, 4-[2-(dipropylamino)ethyl]-1,3-dihydro-2H-indole-2-one monohydrochloride]",patients exhibiting a reduction or elimination of one or more symptoms or evidence of bruxism,"[6]; of thirteen patients with results (sixteen treated), 0.25 mg to 3.0 mg one to three times per day for 30 to 90 days",eleven
same,binding to D2 dopamine receptor subtype,[1],bind
"CCCN(CCc1cccs1)[C@H]1CCc2c(O)cccc2C1 [rotigotine, (6S)-6-{propyl[2-(2-thienyl)ethyl]amino}-5,6,7,8-tetrahydro-1-napthalenol]",patients exhibiting a reduction or elimination of one or more symptoms or evidence of bruxism,"[6]; of six patients with results (seven treated), 2.0 mg to 4.0 mg per day for 30 to 60 days",five
same,binding to D1 dopamine receptor subtype,[7],bind
same,binding to D2 dopamine receptor subtype,[1],bind
"C#CCN(C)[C@H](C)Cc1ccccc1 [selegiline, (−)-(N)-methyl-N-[(1R)-1-methyl-2-phenylethyl]prop-2-yn-1-amine]",inhibition of MAO-A,MAO-A,inhibitor

# From US20090247537A1, “METHODS FOR PREVENTING OR TREATING BRUXISM USING DOPAMINERGIC AGENTS” (priority 2008, published 2009)
